Experiments:
Format in all cases: in vivo, C57BL/6 mice
hB16F10 [1] = test: Antitumor activity (tumor size) after CPA and T cell transfer, syngeneic tumor model C57BL/6-hB16F10; settings: day 11 after tumor inoculation; CPA 100 mg/kg i.p. day 4
Experimental: On the next day, individual mouse T cells prepared in item (2) of Example 11 was prepared with an RPMI 1640 medium to a density of 3.75×10^8 cells/mL, and the naive T-like cells and the effector T-like cells in 0.2 mL each were administered via the tail veins to each individual of group C and group D, respectively. In addition, the RPMI 1640 medium was administered to each individual of group A and group B in 0.2 mL each via the tail veins.
However, the tumor size was determined on days 11 and 13 after the tumor inoculation.

CD3e^+ T cells in blood [2] = test: T cell count in blood after CPA and T cell transfer, syngeneic tumor model C57BL/6-hB16F10; settings: day 6 after cell administration; group A defined as 100%; CPA 100 mg/kg i.p. day 4
Experimental: Evaluation of the lymphocyte count was effected by measuring the leukocyte count and the T cell count contained in the blood sample collected from the mouse tail vein. A volume of 22 μL of the blood was collected into a 0.5 mL tube containing 3 μL of heparin sodium (manufactured by Mitsubishi Wellpharma Inc.) per one mouse. An aliquote of 15 μL was taken from the blood sample, added to a mixed solution of 14 μL of Flow-Count (manufactured by Beckman Coulter Inc.) and 0.5 μL of hamster anti-mouse CD3e FITC (manufactured by eBioscience Inc.), and the mixture was treated for 15 minutes. Thereafter, the erythrocytes were hemolysed with a low isotonic solution, and subjected to flow cytometry to calculate the rate of T cells and the recovery rate of T cells, with the CD3e^+ cells being as the T cells. […] […] Moreover, the recovery rate of the T cells was determined to be a ratio of the number of the T cells on day 4 after the cell administration relative to the number of the T cells immediately before the cell administration.
In a similar manner to item (5) of Example 1, expansion of mouse T cell population was carried out.
Using the mouse T cells which had been expanded in item (1) of Example 11, separation of the naive T-like cells and the effector T-like cells was performed similarly to item (2) of Example 10. […]

CD3e^+ T cells in blood [3] = test: T cell count in blood after MMC and T cell transfer, syngeneic tumor model C57BL/6-hB16F10
Experimental: In a similar manner to item (5) of Example 1, expansion of mouse T cells was carried out, however, the human CH-296 was not used, and the cells on day 6 of culture were collected. The cells were subjected to each experiment.
The cells obtained in item (1) of Example 10 were collected to take a required amount, and centrifuged at 500×g for 5 minutes at room temperature to remove the supernatant. Thereafter, the cells were suspended in DPBS containing 0.5% BSA and 2 mM disodium ethylenediaminetetraacetate (hereinafter referred to as 0.5% BSA/DPBS) to a density of 1.11×10^8 cells/mL. CD62L ([…]) microbeads (mouse) (manufactured by MACS) were added to the cell solution in 10 μL per cell count of 1×10^7 cells, and incubated for 15 minutes while stirring sometimes in a dark place at 4° C. Then, to the cell solution was added 1 mL of 0.5% BSA/DPBS per cell count of 1×10^7 cells, and the mixture was centrifuged at 500×g for 5 minutes at room temperature to remove the supernatant. After that, 0.5 mL of 0.5% BSA/DPBS per cell count of 1×10^8 cells was added thereto, suspended sufficiently, and allowed to stand on ice to afford a CD62L microbeads target cell solution. An LS column (manufactured by MACS, hereinafter referred to as a separation column) was provided to a VarioMACS (trademark) separator (manufactured by MACS, hereinafter referred to as a separation apparatus) and rinsed with 3 mL of 0.5% BSA/DPBS. The CD62L microbeads-labeled cell solution was added to the column for elution and further rinsed with 9 mL of 0.5% BSA/DPBS to collect an eluate, thereby obtaining CD62L^− cells as effector T-like cells. The column was removed from the separation apparatus, and CD62L^+ cells were collected as naive T-like cells by extrusion with a plunger attached to the separation apparatus after addition of 5 mL of a buffer.
Hair removal of about 9 cm^2 in the right inguina of 7-week old female C57BL/6 mice was effected under anesthesia, and 0.1 mL of hB16F10 suspended in an RPMI 1640 medium to a density of 4×10^6 cells/mL was subcutaneously administered to the mice. […]

hB16F10 [4] = test: Antitumor activity (tumor size) after MMC and T cell transfer, syngeneic tumor model C57BL/6-hB16F10; settings: day 14 after tumor inoculation; product of major and minor diameter
Experimental: Hair removal of about 9 cm^2 in the right inguina of 7-week old female C57BL/6 mice was effected under anesthesia, and 0.1 mL of hB16F10 suspended in an RPMI 1640 medium to a density of 4×10^6 cells/mL was subcutaneously administered to the mice. Thereafter, group settings were carried out as follows. Group A was set to an untreated group, group B was set to an MMC alone administration group, group C was set to a combinatorial MMC and naive T-like cell administration group, and group D was set to a combinatorial MMC and effector T-like cell administration group. On days 3 and 4 after tumor inoculation, 0.2 mL of a saline (manufactured by Otsuka Pharmaceutical Co., Ltd.) was intraperitoneally administered to group A and the MMC at a dose of 2 mg/kg was intraperitoneally administered to other groups. On day 6 after the tumor inoculation, individual mouse T cells prepared in item (2) of Example 10 were prepared with an RPMI 1640 medium to a density of 5×10^8 cells/mL. The naive T-like cells and the effector T-like cells in 0.2 mL each were respectively administered to each individual of group C and group D via the tail veins. […]
In order to assay the antitumor activity in the evaluation system performed in item (3) of Example 10, a tumor size in each individual on day 14 after the tumor inoculation was determined with an electronic caliper. […]

SMILES	Tumor Size (mm^2) On day 11 (hB16F10 [1]) [mm^2]	Rate of T cells (%) (CD3e^+ T cells in blood [2])	Rate of T Cells On Day 4 after Cell Administration (CD3e^+ T cells in blood [3]; group A (untreated) defined as 100%, MMC 2 mg/kg i.p. days 3 and 4, cells via tail vein day 6) [%]	Rate of T Cells Immediately before Cell Administration (CD3e^+ T cells in blood [3]; group A (untreated) defined as 100%, MMC 2 mg/kg i.p. on days 3 and 4 after tumor inoculation) [%]	Recovery Rate of T Cells (CD3e^+ T cells in blood [3]; ratio of T cell number on day 4 after cell administration to number immediately before)	Tumor Size (mm^2) (hB16F10 [4])
O=P1(N(CCCl)CCCl)NCCCO1 (stereo not drawn) [CPA, cyclophosamide]	32.6	52.2				
CO[C@@]12[C@H](COC(N)=O)C3=C(C(=O)C(C)=C(N)C3=O)N1C[C@@H]1N[C@@H]12 [MMC, mitomycin C]			118.2	84.1	1.4	82.5
